In ChEMBL document CHEMBL2073987, “The sulphonylurea glibenclamide inhibits multidrug resistance protein (MRP1) activity in human lung cancer cells” (Br J Pharmacol, 2001):

Experiments:
[1] = target: Multidrug resistance-associated protein 1 (Homo sapiens, UniProt P33527); experiment: TP_TRANSPORTER: inhibition of Calcein efflux (Calcein: 0.5 micro;M, Glibenclamide: 50-100 uM, increase intercellular calcein level by ca 4 fold ) in GLC4/Sb30 cells; type: functional, cell-based
[2] = target: ATP-binding cassette sub-family C member 2 (Rattus norvegicus, UniProt Q63120); experiment: TP_TRANSPORTER: inhibition of Carboxy-2',7'-dichlorofluorescein efflux (Calcein: 0.5 micro;M, Glibenclamide, 50-100 uM, increase intercellular CF level by ~2 fold) in isolated rat hepatocytes; type: functional, cell-based, Hepatocyte
Chain of ATP-binding cassette sub-family C member 2 (Q63120 whole entry): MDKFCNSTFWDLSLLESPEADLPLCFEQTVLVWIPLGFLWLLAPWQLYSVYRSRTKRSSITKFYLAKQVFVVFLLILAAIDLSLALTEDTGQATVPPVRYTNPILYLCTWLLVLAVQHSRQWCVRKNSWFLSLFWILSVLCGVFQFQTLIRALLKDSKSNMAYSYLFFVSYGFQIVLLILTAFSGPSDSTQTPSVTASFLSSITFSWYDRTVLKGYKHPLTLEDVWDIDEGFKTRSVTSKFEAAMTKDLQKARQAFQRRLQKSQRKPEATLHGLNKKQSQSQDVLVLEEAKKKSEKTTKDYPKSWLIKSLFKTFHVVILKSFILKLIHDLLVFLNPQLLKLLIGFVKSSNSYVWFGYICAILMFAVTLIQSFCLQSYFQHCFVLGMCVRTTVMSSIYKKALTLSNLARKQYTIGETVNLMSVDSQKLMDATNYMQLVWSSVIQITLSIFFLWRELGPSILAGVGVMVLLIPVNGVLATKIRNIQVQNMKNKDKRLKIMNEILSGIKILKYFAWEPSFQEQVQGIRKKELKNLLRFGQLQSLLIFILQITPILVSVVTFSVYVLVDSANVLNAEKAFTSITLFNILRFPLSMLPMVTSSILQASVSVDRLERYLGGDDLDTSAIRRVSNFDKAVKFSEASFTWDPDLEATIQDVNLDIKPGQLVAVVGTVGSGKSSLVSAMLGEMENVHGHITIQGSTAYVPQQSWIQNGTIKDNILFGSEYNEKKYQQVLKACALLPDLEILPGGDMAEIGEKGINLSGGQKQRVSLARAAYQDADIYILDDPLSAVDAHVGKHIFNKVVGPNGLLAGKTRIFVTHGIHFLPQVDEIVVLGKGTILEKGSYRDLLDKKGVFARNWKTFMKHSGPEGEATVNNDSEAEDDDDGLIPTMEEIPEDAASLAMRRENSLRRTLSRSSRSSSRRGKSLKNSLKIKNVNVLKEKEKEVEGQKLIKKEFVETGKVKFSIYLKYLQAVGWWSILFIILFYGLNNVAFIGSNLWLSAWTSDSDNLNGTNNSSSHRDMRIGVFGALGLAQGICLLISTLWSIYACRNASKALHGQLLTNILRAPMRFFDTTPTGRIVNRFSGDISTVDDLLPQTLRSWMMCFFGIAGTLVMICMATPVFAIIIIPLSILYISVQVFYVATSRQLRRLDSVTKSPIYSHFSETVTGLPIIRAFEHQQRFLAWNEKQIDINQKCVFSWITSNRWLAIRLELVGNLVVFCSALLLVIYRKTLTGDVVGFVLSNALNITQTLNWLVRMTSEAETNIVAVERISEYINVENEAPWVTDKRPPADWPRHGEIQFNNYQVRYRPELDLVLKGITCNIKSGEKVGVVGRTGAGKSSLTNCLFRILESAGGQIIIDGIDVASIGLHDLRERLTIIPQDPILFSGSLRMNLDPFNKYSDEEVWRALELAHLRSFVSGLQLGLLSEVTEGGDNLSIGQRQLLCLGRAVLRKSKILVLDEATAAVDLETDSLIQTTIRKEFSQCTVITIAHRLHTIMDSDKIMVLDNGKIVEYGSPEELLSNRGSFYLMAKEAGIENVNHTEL

Chain of Multidrug resistance-associated protein 1 (P33527 whole entry): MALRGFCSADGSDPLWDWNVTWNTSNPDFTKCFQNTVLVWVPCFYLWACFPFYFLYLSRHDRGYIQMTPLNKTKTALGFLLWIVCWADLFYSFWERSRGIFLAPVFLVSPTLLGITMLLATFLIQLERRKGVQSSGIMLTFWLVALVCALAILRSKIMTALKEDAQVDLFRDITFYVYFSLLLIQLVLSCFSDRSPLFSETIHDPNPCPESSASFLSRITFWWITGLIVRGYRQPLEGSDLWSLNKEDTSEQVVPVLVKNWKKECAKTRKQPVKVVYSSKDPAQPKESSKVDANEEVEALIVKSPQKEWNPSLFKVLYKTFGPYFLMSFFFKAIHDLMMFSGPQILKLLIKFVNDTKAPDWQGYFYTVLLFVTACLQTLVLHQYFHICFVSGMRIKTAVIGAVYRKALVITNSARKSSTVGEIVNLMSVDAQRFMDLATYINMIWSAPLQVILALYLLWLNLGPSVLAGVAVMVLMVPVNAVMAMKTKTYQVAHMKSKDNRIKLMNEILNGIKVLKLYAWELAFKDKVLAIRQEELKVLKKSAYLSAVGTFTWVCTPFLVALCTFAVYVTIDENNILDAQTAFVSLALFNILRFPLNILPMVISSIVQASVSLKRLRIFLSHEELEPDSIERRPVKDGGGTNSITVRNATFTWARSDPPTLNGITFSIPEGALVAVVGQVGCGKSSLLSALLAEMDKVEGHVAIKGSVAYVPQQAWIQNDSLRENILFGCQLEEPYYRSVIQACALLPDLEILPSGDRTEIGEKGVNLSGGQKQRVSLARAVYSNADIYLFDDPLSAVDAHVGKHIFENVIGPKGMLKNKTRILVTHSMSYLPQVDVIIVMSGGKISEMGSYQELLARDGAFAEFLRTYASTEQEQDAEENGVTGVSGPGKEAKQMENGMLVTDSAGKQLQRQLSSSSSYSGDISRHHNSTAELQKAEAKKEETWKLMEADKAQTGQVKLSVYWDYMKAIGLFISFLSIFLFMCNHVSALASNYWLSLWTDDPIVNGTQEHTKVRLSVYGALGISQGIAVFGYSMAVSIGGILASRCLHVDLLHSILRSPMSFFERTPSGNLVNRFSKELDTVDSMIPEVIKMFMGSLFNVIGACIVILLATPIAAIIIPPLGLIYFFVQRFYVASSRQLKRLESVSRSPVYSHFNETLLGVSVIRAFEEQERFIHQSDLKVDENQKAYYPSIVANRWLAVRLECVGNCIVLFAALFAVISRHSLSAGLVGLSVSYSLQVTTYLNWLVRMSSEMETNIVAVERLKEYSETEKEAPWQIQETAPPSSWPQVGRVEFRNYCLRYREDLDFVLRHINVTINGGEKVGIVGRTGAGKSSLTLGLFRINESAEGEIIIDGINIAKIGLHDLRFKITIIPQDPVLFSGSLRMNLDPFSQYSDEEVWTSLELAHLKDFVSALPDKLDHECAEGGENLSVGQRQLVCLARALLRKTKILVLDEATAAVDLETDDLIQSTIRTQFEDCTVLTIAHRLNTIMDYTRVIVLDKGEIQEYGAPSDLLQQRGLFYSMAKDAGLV

Activity [1]: inhibitor [+]
Activity [2]: inhibitor [+]
Structure (SMILES): COc1ccc(Cl)cc1C(=O)NCCc1ccc(S(=O)(=O)NC(=O)NC2CCCCC2)cc1 [GLYBURIDE]
